Values of other authors as cited in paper PMC7395068, “The evolution of strategies to minimise the risk of human drug-induced liver injury (DILI) in drug discovery and development” (Archives of Toxicology, 2020).
Where two headings read alike, the source gives them in different places.

Settings: cited from earlier work
[1] = binary in vivo DILI call given beside the severity category, ref Chen 2016
[2] = human DILI concern category (LTKB DILIrank), ref Chen 2016

O=C(O)c1cc(/N=N/c2ccc(O)c(C(=O)O)c2)ccc1O [olsalazine]
DILI +VE (5-8), DILI -VE (-4) [1]: +VE | DILI severity category [2]: vLess-DILI-Concern

Cc1nccn1CC1CCc2c(c3ccccc3n2C)C1=O (stereo not drawn) [ondansetron]
DILI +VE (5-8), DILI -VE (-4) [1]: +VE | DILI severity category [2]: vLess-DILI-Concern

Cc1onc(-c2ccccc2)c1C(=O)N[C@@H]1C(=O)N2[C@@H]1SC(C)(C)[C@@H]2C(=O)O [oxacillin]
DILI +VE (5-8), DILI -VE (-4) [1]: +VE | DILI severity category [2]: vLess-DILI-Concern

O=C(O)C(=O)O.[NH-][C@@H]1CCCC[C@H]1[NH-].[Pt+2] [oxaliplatin]
DILI +VE (5-8), DILI -VE (-4) [1]: +VE | DILI severity category [2]: vMost-DILI-Concern

O=C1Nc2ccc(Cl)cc2C(c2ccccc2)=NC1O (stereo not drawn) [oxazepam]
DILI +VE (5-8), DILI -VE (-4) (in vivo): -VE | DILI severity category (in vivo): Ambiguous DILI-concern

COc1ccc2c3c1O[C@H]1C(=O)CC[C@@]4(O)[C@@H](C2)N(C)CC[C@]314 [oxycodone]
DILI +VE (5-8), DILI -VE (-4) (in vivo): -VE | DILI severity category (in vivo): vNo-DILI-Concern

O=C1Nc2ccccc2C1(c1ccc(O)cc1)c1ccc(O)cc1 [oxyphenisatin]
DILI +VE (5-8), DILI -VE (-4) (in vivo): +VE | DILI severity category (in vivo): vMost-DILI-Concern

CC[C@H](C)[C@@H]1NC(=O)[C@H](Cc2ccc(O)cc2)NC(=O)[C@@H](N)CSSC[C@@H](C(=O)N2CCC[C@H]2C(=O)N[C@@H](CC(C)C)C(=O)NCC(N)=O)NC(=O)[C@H](CC(N)=O)NC(=O)[C@H](CCC(N)=O)NC1=O [oxytocin]
DILI +VE (5-8), DILI -VE (-4) (in vivo): -VE | DILI severity category (in vivo): vNo-DILI-Concern

CONC(=N)c1ccc(-c2ccc(-c3ccc(C(=N)NOC)cc3)o2)cc1 [pafuramidine]
DILI +VE (5-8), DILI -VE (-4) [1]: +VE | DILI severity category [2]: vMost-DILI-Concern

O=C1c2cccc3c2[C@H](CCC3)CN1[C@@H]1CN2CCC1CC2 [palonosetron]
DILI +VE (5-8), DILI -VE (-4) [1]: -VE | DILI severity category [2]: Ambiguous DILI-concern

CC(=O)O[C@H]1C[C@@H]2CC[C@@H]3[C@H](CC[C@@]4(C)[C@H]3C[C@H]([N+]3(C)CCCCC3)[C@@H]4OC(C)=O)[C@@]2(C)C[C@@H]1[N+]1(C)CCCCC1 [pancuronium]
DILI +VE (5-8), DILI -VE (-4) (in vivo): -VE | DILI severity category (in vivo): vNo-DILI-Concern

COc1ccnc(C[S+]([O-])c2nc3ccc(OC(F)F)cc3[nH]2)c1OC (stereo not drawn) [pantoprazole]
DILI +VE (5-8), DILI -VE (-4) [1]: +VE | DILI severity category [2]: vLess-DILI-Concern

COc1ccc(Cc2nccc3cc(OC)c(OC)cc23)cc1OC [papaverine]
DILI +VE (5-8), DILI -VE (-4) (in vivo): +VE | DILI severity category (in vivo): vMost-DILI-Concern

C[C@H](/C=C/[C@H](C)C(C)(C)O)[C@H]1CC[C@H]2/C(=C/C=C3C[C@@H](O)C[C@H](O)C3)CCC[C@]12C [paricalcitol]
DILI +VE (5-8), DILI -VE (-4) [1]: -VE | DILI severity category [2]: Ambiguous DILI-concern

Nc1nc2[nH]cc(CCc3ccc(C(=O)N[C@@H](CCC(=O)O)C(=O)O)cc3)c2c(=O)[nH]1 [pemetrexed]
DILI +VE (5-8), DILI -VE (-4) [1]: -VE | DILI severity category [2]: Ambiguous DILI-concern

CSCC[C@H](NC(=O)[C@H](Cc1c[nH]c2ccccc12)NC(=O)CCNC(=O)OC(C)(C)C)C(=O)N[C@@H](CC(=O)O)C(=O)N[C@@H](Cc1ccccc1)C(N)=O [pentagastrin]
DILI +VE (5-8), DILI -VE (-4) (in vivo): -VE | DILI severity category (in vivo): vNo-DILI-Concern

N=C(N)c1ccc(OCCCCCOc2ccc(C(=N)N)cc2)cc1 [pentamidine]
DILI +VE (5-8), DILI -VE (-4) [1]: +VE | DILI severity category [2]: vLess-DILI-Concern

CC(C)=CCN1CCC2(C)c3cc(O)ccc3CC1C2C (stereo not drawn) [pentazocine]
DILI +VE (5-8), DILI -VE (-4) [1]: -VE | DILI severity category [2]: vNo-DILI-Concern

O=C(O)CN(CCN(CC(=O)O)CC(=O)O)CCN(CC(=O)O)CC(=O)O [pentetic acid]
DILI +VE (5-8), DILI -VE (-4) [1]: -VE | DILI severity category [2]: vNo-DILI-Concern

CCCC(C)C1(CC)C(=O)NC(=O)NC1=O (stereo not drawn) [pentobarbital]
DILI +VE (5-8), DILI -VE (-4) [1]: -VE | DILI severity category [2]: Ambiguous DILI-concern

OC[C@H]1O[C@@H](n2cnc3c2NC=NC[C@H]3O)C[C@@H]1O [pentostatin]
DILI +VE (5-8), DILI -VE (-4) [1]: +VE | DILI severity category [2]: vMost-DILI-Concern

CC(=O)CCCCn1c(=O)c2c(ncn2C)n(C)c1=O [pentoxifylline]
DILI +VE (5-8), DILI -VE (-4) [1]: -VE | DILI severity category [2]: Ambiguous DILI-concern

FC(F)(F)C(F)(F)C(F)(F)F [perflutren]
DILI +VE (5-8), DILI -VE (-4) [1]: -VE | DILI severity category [2]: vNo-DILI-Concern

CCC[C@H](N[C@@H](C)C(=O)N1[C@H](C(=O)O)C[C@@H]2CCCC[C@@H]21)C(=O)OCC [perindopril]
DILI +VE (5-8), DILI -VE (-4) [1]: -VE | DILI severity category [2]: Ambiguous DILI-concern

CC1=C(C/C=C(\C)CCC[C@H](C)CCC[C@H](C)CCCC(C)C)C(=O)c2ccccc2C1=O [phytonadione]
DILI +VE (5-8), DILI -VE (-4) [1]: -VE | DILI severity category [2]: vNo-DILI-Concern

O=C(O)C[C@H](O)C[C@H](O)/C=C/c1c(C2CC2)nc2ccccc2c1-c1ccc(F)cc1 [pitavastatin]
DILI +VE (5-8), DILI -VE (-4) [1]: -VE | DILI severity category [2]: Ambiguous DILI-concern

c1cc(CN2CCCNCCNCCCNCC2)ccc1CN1CCCNCCNCCCNCC1 [plerixafor]
DILI +VE (5-8), DILI -VE (-4) [1]: -VE | DILI severity category [2]: vNo-DILI-Concern

CN1C(CSCC(F)(F)F)Nc2cc(Cl)c(S(N)(=O)=O)cc2S1(=O)=O (stereo not drawn) [polythiazide]
DILI +VE (5-8), DILI -VE (-4) [1]: -VE | DILI severity category [2]: Ambiguous DILI-concern

CC[C@@H]([C@H](C)O)n1ncn(-c2ccc(N3CCN(c4ccc(OC[C@@H]5CO[C@@](Cn6cncn6)(c6ccc(F)cc6F)C5)cc4)CC3)cc2)c1=O [posaconazole]
DILI +VE (5-8), DILI -VE (-4) [1]: -VE | DILI severity category [2]: Ambiguous DILI-concern

C#CCC(Cc1cnc2nc(N)nc(N)c2n1)c1ccc(C(=O)N[C@@H](CCC(=O)O)C(=O)O)cc1 (stereo partly drawn) [pralatrexate]
DILI +VE (5-8), DILI -VE (-4) [1]: -VE | DILI severity category [2]: Ambiguous DILI-concern

C[n+]1ccccc1/C=N/O [pralidoxime]
DILI +VE (5-8), DILI -VE (-4) [1]: -VE | DILI severity category [2]: Ambiguous DILI-concern

CCO[C@@H]1OC(=O)C[C@@H]1NC(=O)[C@@H]1CCCN2C(=O)CC[C@H](NC(=O)c3nccc4ccccc34)C(=O)N12 [pralnacasan]
DILI +VE (5-8), DILI -VE (-4) [1]: +VE | DILI severity category [2]: vMost-DILI-Concern

CCCN[C@H]1CCc2nc(N)sc2C1 [pramipexole]
DILI +VE (5-8), DILI -VE (-4) [1]: -VE | DILI severity category [2]: Ambiguous DILI-concern

COc1cc2nc(N3CCN(C(=O)c4ccco4)CC3)nc(N)c2cc1OC [prazosin]
DILI +VE (5-8), DILI -VE (-4) (in vivo): -VE | DILI severity category (in vivo): Ambiguous DILI-concern

CC(C)c1cccc(C(C)C)c1O [propofol]
DILI +VE (5-8), DILI -VE (-4) (in vivo): +VE | DILI severity category (in vivo): vLess-DILI-Concern

NC(=O)[C@@H]1CCCN1C(=O)[C@H](Cc1cnc[nH]1)NC(=O)[C@@H]1CCC(=O)N1 [protirelin]
DILI +VE (5-8), DILI -VE (-4) (in vivo): -VE | DILI severity category (in vivo): vNo-DILI-Concern

Fc1ccccc1C1=NCC(=S)N(CC(F)(F)F)c2ccc(Cl)cc21 [quazepam]
DILI +VE (5-8), DILI -VE (-4) [1]: -VE | DILI severity category [2]: vNo-DILI-Concern

OCCOCCN1CCN(C2=Nc3ccccc3Sc3ccccc32)CC1 [quetiapine]
DILI +VE (5-8), DILI -VE (-4) [1]: +VE | DILI severity category [2]: vLess-DILI-Concern

COCCCOc1ccnc(C[S+]([O-])c2nc3ccccc3[nH]2)c1C (stereo not drawn) [rabeprazole]
DILI +VE (5-8), DILI -VE (-4) [1]: +VE | DILI severity category [2]: vLess-DILI-Concern

CCC(=O)NCC[C@@H]1CCc2ccc3c(c21)CCO3 [ramelteon]
DILI +VE (5-8), DILI -VE (-4) [1]: -VE | DILI severity category [2]: vNo-DILI-Concern

CCOC(=O)[C@H](CCc1ccccc1)N[C@@H](C)C(=O)N1[C@H](C(=O)O)C[C@@H]2CCC[C@@H]21 [ramipril]
DILI +VE (5-8), DILI -VE (-4) (in vivo): +VE | DILI severity category (in vivo): vLess-DILI-Concern

C#CCN[C@@H]1CCc2ccccc21 [rasagiline]
DILI +VE (5-8), DILI -VE (-4) [1]: -VE | DILI severity category [2]: Ambiguous DILI-concern

CNC(=O)c1cnn(-c2nc(N)c3ncn([C@@H]4O[C@H](CO)[C@@H](O)[C@H]4O)c3n2)c1 [regadenoson]
DILI +VE (5-8), DILI -VE (-4) (in vivo): -VE | DILI severity category (in vivo): vNo-DILI-Concern

CCOc1cc(CC(=O)N[C@@H](CC(C)C)c2ccccc2N2CCCCC2)ccc1C(=O)O [repaglinide]
DILI +VE (5-8), DILI -VE (-4) [1]: +VE | DILI severity category [2]: vLess-DILI-Concern

COC(=O)[C@H]1[C@H]2C[C@@H]3c4[nH]c5cc(OC)ccc5c4CCN3C[C@H]2C[C@@H](OC(=O)c2cc(OC)c(OC)c(OC)c2)[C@@H]1OC [reserpine]
DILI +VE (5-8), DILI -VE (-4) [1]: -VE | DILI severity category [2]: vNo-DILI-Concern

CO[C@H]1/C=C/O[C@@]2(C)Oc3c(C)c(O)c4c(c3C2=O)C2=NC3(CCN(CC(C)C)CC3)NC2=C(NC(=O)/C(C)=C\C=C\[C@H](C)[C@H](O)[C@@H](C)[C@@H](O)[C@@H](C)[C@H](OC(C)=O)[C@@H]1C)C4=O [rifabutin]
DILI +VE (5-8), DILI -VE (-4) [1]: +VE | DILI severity category [2]: vLess-DILI-Concern

CC(N)C12CC3CC(CC(C3)C1)C2 (stereo not drawn) [rimantadine]
DILI +VE (5-8), DILI -VE (-4) [1]: -VE | DILI severity category [2]: vNo-DILI-Concern

CCN(C)C(=O)Oc1cccc([C@H](C)N(C)C)c1 [rivastigmine]
DILI +VE (5-8), DILI -VE (-4) [1]: +VE | DILI severity category [2]: vLess-DILI-Concern

CN(C)CCc1c[nH]c2ccc(Cn3cncn3)cc12 [rizatriptan]
DILI +VE (5-8), DILI -VE (-4) [1]: -VE | DILI severity category [2]: vNo-DILI-Concern

C=CC[N+]1([C@H]2C[C@H]3[C@@H]4CC[C@H]5C[C@H](O)[C@@H](N6CCOCC6)C[C@]5(C)[C@H]4CC[C@]3(C)[C@H]2OC(C)=O)CCCC1 [rocuronium]
DILI +VE (5-8), DILI -VE (-4) (in vivo): -VE | DILI severity category (in vivo): vNo-DILI-Concern

CCCN(CCC)CCc1cccc2c1CC(=O)N2 [ropinirole]
DILI +VE (5-8), DILI -VE (-4) [1]: +VE | DILI severity category [2]: vLess-DILI-Concern

CC(C)(C)NCC(O)c1ccc(O)c(CO)c1 (stereo not drawn) [salbutamol]
DILI +VE (5-8), DILI -VE (-4) [1]: -VE | DILI severity category [2]: vNo-DILI-Concern

O=C(Oc1ccccc1C(=O)O)c1ccccc1O [salsalate]
DILI +VE (5-8), DILI -VE (-4) [1]: +VE | DILI severity category [2]: vLess-DILI-Concern

C=CCC1(C(C)CCC)C(=O)NC(=O)NC1=O (stereo not drawn) [secobarbital]
DILI +VE (5-8), DILI -VE (-4) [1]: -VE | DILI severity category [2]: Ambiguous DILI-concern
